Measured values published in ChEMBL document CHEMBL3400104, “Discovery of a potent, orally available dual CysLT₁ and CysLT₂ antagonist with dicarboxylic acid” (Bioorg Med Chem, 2015).

Key:
[1] = Half life in rat at 30 mg/kg, po; assay type: ADME, organism-based; design: dose 30 mg/kg, route oral; details: in vivo
[2] = AUCinf in rat at 1 mg/kg, iv; assay type: ADME, organism-based; design: dose 1 mg/kg, route intravenous, time infinity; details: plasma
[3] = biological target: T1, Cysteinyl leukotriene receptor 1 (Homo sapiens, UniProt Q9Y271); assay: Antagonist activity at human CysLT1 receptor expressed in CHO cells assessed as inhibition of LTD4-inudced intracellular calcium influx preincubated for 30 mins before LTD4 addition by Fura2-AM assay; assay type: functional, cell-based
T1 sequence (Q9Y271 whole entry): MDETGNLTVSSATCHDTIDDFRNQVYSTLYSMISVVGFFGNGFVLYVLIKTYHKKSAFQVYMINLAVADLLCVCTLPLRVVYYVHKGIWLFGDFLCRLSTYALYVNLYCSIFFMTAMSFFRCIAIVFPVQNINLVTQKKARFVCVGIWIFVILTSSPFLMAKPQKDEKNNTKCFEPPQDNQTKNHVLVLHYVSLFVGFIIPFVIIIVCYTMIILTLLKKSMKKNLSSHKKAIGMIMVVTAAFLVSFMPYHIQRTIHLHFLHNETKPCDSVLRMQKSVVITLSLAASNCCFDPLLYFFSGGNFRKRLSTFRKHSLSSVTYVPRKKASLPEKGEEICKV

[4] = Half life in rat at 1 mg/kg, iv; assay type: ADME, organism-based; design: dose 1 mg/kg, route intravenous; details: in vivo
[5] = Apparent permeability of the compound at pH 7.4 by PAMPA; assay type: physicochemical
[6] = Apparent permeability of the compound at pH 6.2 by PAMPA; assay type: physicochemical
[7] = Oral bioavailability in rat at 30 mg/kg; assay type: ADME, organism-based; details: in vivo
[8] = biological target: T2, Cysteinyl leukotriene receptor 2 (Homo sapiens, UniProt Q9NS75); assay: Antagonist activity at human CysLT2 receptor expressed in HEK293 cells assessed as inhibition of LTD4-inudced intracellular calcium influx preincubated for 30 mins before LTD4 addition by Fura2-AM assay; assay type: functional, cell-based
T2 sequence (Q9NS75 whole entry): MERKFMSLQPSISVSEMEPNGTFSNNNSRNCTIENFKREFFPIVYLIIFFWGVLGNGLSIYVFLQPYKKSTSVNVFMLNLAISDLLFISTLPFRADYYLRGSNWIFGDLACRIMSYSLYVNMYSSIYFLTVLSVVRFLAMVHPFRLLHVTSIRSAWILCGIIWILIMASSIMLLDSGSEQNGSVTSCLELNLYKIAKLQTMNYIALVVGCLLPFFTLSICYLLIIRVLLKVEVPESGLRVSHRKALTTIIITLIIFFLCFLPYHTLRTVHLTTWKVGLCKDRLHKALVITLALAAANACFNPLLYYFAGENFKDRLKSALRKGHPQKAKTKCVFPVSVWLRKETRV

[9] = AUC in rat at 30 mg/kg, po; assay type: ADME, organism-based; design: dose 30 mg/kg, route oral; details: plasma
[10] = Volume of distribution at steady state in rat at 1 mg/kg, iv; assay type: ADME, organism-based; design: dose 1 mg/kg, route intravenous; details: in vivo, read-out: Vdss
[11] = Apparent permeability across apical to basolateral or basolateral to apical side in human Caco2 cells at 1 uM after 2 hrs by LC/MS/MS analysis; assay type: ADME, cell-based; details: Caco-2
[12] = Cmax in rat at 30 mg/kg, po; assay type: ADME, organism-based; design: dose 30 mg/kg, route oral; details: in vivo
[13] = Clearance in rat at 1 mg/kg, iv; assay type: ADME, organism-based; design: dose 1 mg/kg, route intravenous; details: in vivo
[14] = Cmax in rat at 10 mg/kg, po; assay type: ADME, organism-based; design: dose 10 mg/kg, route oral; details: in vivo
[15] = Oral bioavailability in rat at 10 mg/kg; assay type: ADME, organism-based; details: in vivo
[16] = AUC in rat at 10 mg/kg, po; assay type: ADME, organism-based; design: dose 10 mg/kg, route oral; details: plasma
[17] = Half life in rat at 10 mg/kg, po; assay type: ADME, organism-based; design: dose 10 mg/kg, route oral; details: in vivo
[18] = test system: Cavia porcellus; assay: In vivo inhibition of CysLT1 receptor in guinea pig assessed as reduction in LTD4-induced bronchoconstriction at 3 mg/kg, po relative to vehicle treated control; assay type: functional
[19] = test system: Cavia porcellus; assay: In vivo inhibition of CysLT1 receptor in po dosed guinea pig assessed as reduction in LTD4-induced bronchoconstriction; assay type: functional, organism-based

SMILES | half-life [1] | AUC(0-inf) [2] | IC50 [3] | half-life [4] | Papp [5] | Papp [6] | bioavailability [7] | IC50 [8] | AUC [9] | Vd [10] | Papp at 2 h, 1 µM [11] | Cmax [12] | clearance [13] | Cmax [14] | bioavailability [15] | AUC [16] | half-life [17] | inhibition in vivo at 3 mg/kg [18] | inhibition [19]
CS(=O)(=O)NC(=O)C1CN(CCCC(=O)O)c2cccc(NC(=O)c3ccc(OCCCCc4ccccc4)cc3)c2O1 (stereo unspecified) |  |  | 22 nM |  |  |  |  | 16 nM |  |  | 0.06 ×10⁻⁶ cm/s |  |  |  |  |  |  |  | 
O=C(O)CCCN1CC(C(=O)NS(=O)(=O)c2ccccc2)Oc2c(NC(=O)c3ccc(OCCCCc4ccccc4)cc3)cccc21 (stereo unspecified) |  |  | 70 nM |  |  |  |  | 5.7 nM |  |  | 0.06 ×10⁻⁶ cm/s |  |  |  |  |  |  |  | 
O=C(O)CCCN1CC(C(=O)O)Oc2c(NC(=O)c3ccc(OCCCCc4ccccc4)cc3)cccc21 (stereo unspecified) | 3.2 h | 3500 ng·h/mL |  |  |  |  |  |  |  | 0.104 L/kg | 0.18 ×10⁻⁶ cm/s | 210 ng/mL |  |  |  |  |  |  | 
O=C(O)CCCN1CC(CO)Oc2c(NC(=O)c3ccc(OCCCCc4ccccc4)cc3)cccc21 (stereo unspecified) |  |  | 740 nM |  |  |  |  | 410 nM |  |  | 0.17 ×10⁻⁶ cm/s |  |  |  |  |  |  |  | 
O=C(O)CCCN1CC(c2nnn[nH]2)Oc2c(CCc3ccc(OCCCCc4ccccc4)cc3)cccc21 (stereo unspecified) |  | 1200 ng·h/mL | 35 nM | 3.8 h |  |  |  | 15 nM |  | 0.999 L/kg | 0.52 ×10⁻⁶ cm/s |  | 15 mL/min/kg | 400 ng/mL | 15% | 1800 ng·h/mL | 2.9 h |  | 
O=C(O)CCCN1CC(c2nnn[nH]2)Oc2c(NC(=O)c3ccc(OCCCCc4ccccc4)cc3)cccc21 (stereo unspecified) | 11 h | 2100 ng·h/mL | 0.79 nM | 4 h |  |  | 1% | 0.49 nM | 700 ng·h/mL | 0.342 L/kg | 0.11 ×10⁻⁶ cm/s | 40 ng/mL | 7.8 mL/min/kg |  |  |  |  |  | 
O=C(O)CCCN1CC(C(=O)O)Oc2c(CCc3ccc(OCCCCc4ccccc4)cc3)cccc21 (stereo unspecified) | 2.5 h | 3700 ng·h/mL | 82 nM | 6 h |  |  | 79% | 16 nM | 88000 ng·h/mL | 1.46 L/kg | 2.8 ×10⁻⁶ cm/s | 12000 ng/mL | 4.8 mL/min/kg |  |  |  |  |  | 

The next lines start with results.

half-life [1] | AUC(0-inf) [2] | IC50 [3] | half-life [4] | Papp [5] | Papp [6] | bioavailability [7] | IC50 [8] | AUC [9] | Vd [10] | Papp at 2 h, 1 µM [11] | Cmax [12] | clearance [13] | Cmax [14] | bioavailability [15] | AUC [16] | half-life [17] | SMILES | inhibition in vivo at 3 mg/kg [18] | inhibition [19]
3.6 h | 24000 ng·h/mL | 70 nM | 5.6 h | 0.1 ×10⁻⁶ cm/s | 1.1 ×10⁻⁶ cm/s | 29% | 5.7 nM | 203000 ng·h/mL | 0.365 L/kg | 1.3 ×10⁻⁶ cm/s | 21000 ng/mL | 0.77 mL/min/kg |  |  |  |  | O=C(O)CCCN1CC(C(=O)O)Oc2c(/C=C/c3ccc(OCCCCc4ccccc4)cc3)cccc21 (stereo unspecified) |  | 
 |  | 490 nM |  | < 0.1 ×10⁻⁶ cm/s | 11 ×10⁻⁶ cm/s |  | 75 nM |  |  | 11 ×10⁻⁶ cm/s |  |  |  |  |  |  | O=C(O)CCCOc1nc2cccc(/C=C/c3ccc(OCCCCOc4ccccc4)cc3)c2nc1C(=O)O |  | 
 |  | 1900 nM |  |  |  |  | 4300 nM |  |  | 0.17 ×10⁻⁶ cm/s |  |  |  |  |  |  | O=C(O)CCCN1CCOc2c(NC(=O)c3ccc(OCCCCc4ccccc4)cc3)cccc21 |  | 
 |  | 250 nM |  | 12 ×10⁻⁶ cm/s | 13 ×10⁻⁶ cm/s |  | 370 nM |  |  | 13 ×10⁻⁶ cm/s |  |  |  |  |  |  | O=C(O)CCCn1cc(C(=O)O)c(=O)c2c(/C=C/c3ccc(OCCCCOc4ccccc4)cc3)cccc21 |  | 
 | 28000 ng·h/mL |  | 7.1 h |  |  |  |  |  | 0.208 L/kg |  |  | 0.65 mL/min/kg | 33000 ng/mL | 100% | 324000 ng·h/mL | 4.7 h | O=C(O)CCCn1cc(CC(=O)O)c2c(/C=C/c3ccc(OCCCCOc4ccccc4)cc3)cccc21 | 45% | Dose-dependent effect
 |  | 24 nM |  | < 0.1 ×10⁻⁶ cm/s | 7.8 ×10⁻⁶ cm/s |  | 0.31 nM |  |  | 7.8 ×10⁻⁶ cm/s |  |  |  |  |  |  | O=C(O)CCCN1CC(C(=O)O)Oc2c(/C=C/c3ccc(OCCCCOc4ccccc4)cc3)cccc21 (stereo unspecified) |  | 
7.4 h | 7900 ng·h/mL | 58 nM | 6 h |  |  | 20% |  | 48000 ng·h/mL | 0.18 L/kg | 0.74 ×10⁻⁶ cm/s | 5600 ng/mL | 2.2 mL/min/kg |  |  |  |  | O=C(O)CCCN1CC(C(=O)O)Oc2c(OCc3ccc(OCCCCc4ccccc4)cc3)cccc21 (stereo unspecified) |  | 
 |  | 0.59 nM |  |  |  |  | 3.4 nM |  |  | 0.16 ×10⁻⁶ cm/s |  |  |  |  |  |  | O=C(O)CCCN1CC(c2nnn[nH]2)Oc2c(/C=C/c3ccc(OCCCCc4ccccc4)cc3)cccc21 (stereo unspecified) |  | 
